Measurements published in paper PMC8138772 (The Journal of Biological Chemistry, 2021).
“Also recorded” adds a separate entry of the source. Each block holds one molecule with its values, some of them ahead of it. [ ]: non-standard residue; d: D form. The star is where a group is joined. Biotin = O=C1N[C@H]2[C@H](CS[C@H]2CCCCC(=O)*)N1; Cit = NC(=O)NCCC[C@H](N)C(=O)O

Experiments:
[1] = biological target: K562 αvβ6:mCherry cells (αvβ6 integrin) (Homo sapiens, UniProt P06756+P18564); format: binding
normal mouse serum = conditions: 37 °C
K562 cells = format: binding
[2] = mouse
in vitro = conditions: mouse, serum

K562 αvβ6:mCherry cells (αvβ6 integrin), sequence (P06756 31-889 limits assumed): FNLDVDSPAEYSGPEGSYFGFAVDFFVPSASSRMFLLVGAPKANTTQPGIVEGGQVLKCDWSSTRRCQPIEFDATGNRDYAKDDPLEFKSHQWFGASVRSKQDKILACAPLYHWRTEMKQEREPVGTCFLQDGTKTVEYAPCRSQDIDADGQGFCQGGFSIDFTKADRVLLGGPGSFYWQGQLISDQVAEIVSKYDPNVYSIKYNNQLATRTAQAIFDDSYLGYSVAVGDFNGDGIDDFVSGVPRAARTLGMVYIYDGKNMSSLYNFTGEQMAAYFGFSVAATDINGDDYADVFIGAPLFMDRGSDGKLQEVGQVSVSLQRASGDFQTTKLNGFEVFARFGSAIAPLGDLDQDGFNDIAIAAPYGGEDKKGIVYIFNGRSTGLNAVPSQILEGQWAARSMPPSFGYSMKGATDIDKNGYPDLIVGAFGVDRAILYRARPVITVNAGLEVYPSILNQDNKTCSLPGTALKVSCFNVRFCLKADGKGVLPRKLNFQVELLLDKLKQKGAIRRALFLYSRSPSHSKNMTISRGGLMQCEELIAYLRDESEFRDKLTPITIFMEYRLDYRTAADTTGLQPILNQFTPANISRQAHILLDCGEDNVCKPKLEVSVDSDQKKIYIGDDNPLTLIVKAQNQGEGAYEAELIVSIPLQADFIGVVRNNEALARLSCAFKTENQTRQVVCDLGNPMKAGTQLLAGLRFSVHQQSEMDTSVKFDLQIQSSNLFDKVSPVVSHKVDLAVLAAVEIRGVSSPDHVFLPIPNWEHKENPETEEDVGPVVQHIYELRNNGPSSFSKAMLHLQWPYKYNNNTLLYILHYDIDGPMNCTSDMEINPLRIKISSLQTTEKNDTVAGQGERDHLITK
K562 αvβ6:mCherry cells (αvβ6 integrin), sequence (P06756 891-1048 partner limits assumed): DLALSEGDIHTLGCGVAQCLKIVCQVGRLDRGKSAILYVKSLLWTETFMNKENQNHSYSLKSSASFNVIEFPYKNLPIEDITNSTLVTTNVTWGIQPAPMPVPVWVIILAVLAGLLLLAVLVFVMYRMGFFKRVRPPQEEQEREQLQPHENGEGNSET
K562 αvβ6:mCherry cells (αvβ6 integrin), sequence (P18564 22-788 limits assumed): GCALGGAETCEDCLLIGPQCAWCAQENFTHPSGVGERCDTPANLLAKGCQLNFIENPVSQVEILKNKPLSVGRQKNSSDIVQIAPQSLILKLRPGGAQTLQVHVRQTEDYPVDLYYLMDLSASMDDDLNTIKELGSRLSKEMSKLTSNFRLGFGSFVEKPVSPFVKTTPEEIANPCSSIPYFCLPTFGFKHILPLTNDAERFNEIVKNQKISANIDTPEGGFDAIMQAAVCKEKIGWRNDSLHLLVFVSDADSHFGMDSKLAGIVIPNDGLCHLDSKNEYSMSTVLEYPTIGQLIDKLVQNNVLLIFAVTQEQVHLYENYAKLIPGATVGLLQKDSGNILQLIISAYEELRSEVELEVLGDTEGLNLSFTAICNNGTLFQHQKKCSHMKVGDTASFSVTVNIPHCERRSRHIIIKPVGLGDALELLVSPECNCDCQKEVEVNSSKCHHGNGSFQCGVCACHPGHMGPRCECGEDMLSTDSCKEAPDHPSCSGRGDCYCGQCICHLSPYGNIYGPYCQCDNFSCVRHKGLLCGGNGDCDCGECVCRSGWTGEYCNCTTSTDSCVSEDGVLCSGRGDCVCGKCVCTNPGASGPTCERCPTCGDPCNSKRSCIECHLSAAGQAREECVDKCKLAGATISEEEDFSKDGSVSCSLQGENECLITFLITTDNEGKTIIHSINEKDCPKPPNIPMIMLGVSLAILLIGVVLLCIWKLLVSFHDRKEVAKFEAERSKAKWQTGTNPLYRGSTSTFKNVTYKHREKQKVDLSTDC

Molecule: CC(C)C[C@@H]1NC(=O)[C@H](CC(=O)O)NC(=O)CNC(=O)[C@H](CCCNC(=N)N)NC(=O)[C@H](CC(C)C)NC(=O)[C@H](CC(N)=O)NC(=O)[C@@H]2CCCN2C(=O)[C@H](C(C)C)NC(=O)[C@@H](NC(=O)[C@H](CC(N)=O)NC(=O)CCCC[C@@H]2SC[C@@H]3NC(=O)N[C@@H]32)CSc2c(F)c(F)c(c(F)c2F)-c2c(F)c(F)c(c(F)c2F)SC[C@@H](C(=O)N[C@@H](CCCNC(=N)N)C(=O)N[C@H](C(=O)N[C@@H](CCCCN)C(N)=O)[C@@H](C)O)NC(=O)[C@H](C(C)C)NC(=O)[C@H](CCCCN)NC(=O)[C@H](CCC(N)=O)NC(=O)[C@H](C)NC(=O)[C@H](CC(C)C)NC(=O)[C@H](C(C)C)NC(=O)[C@H](CCC(N)=O)NC1=O [C2C18 DFBP]
binding to K562 αvβ6:mCherry cells (in words) [1]: high affinity and specificity comparable to the original A20FMDV2 peptide

cleaved bond (normal mouse serum; up to 24 h): Asn1-C2, 24 h
Molecule: biotin-NCVPhNLRGDLQVLAQKVCRDTKAD-amide

cleaved bond (normal mouse serum; up to 6 h): C18-arginine19
Molecule: Biotin-CAVPNLRGDLQVLAQKVCRTK-NH2 (cysteine pairing not given here)

cleaved bond (normal mouse serum; up to 24 h): Thr20-K21, 12 h
Molecule: Biotin-NCVPNLRGDLQVLAQKVC[Cit]TKAD-NH2 (cysteine pairing not given here)

Molecule: CC(C)C[C@@H]1NC(=O)[C@H](CC(=O)O)NC(=O)CNC(=O)[C@H](CCCNC(=N)N)NC(=O)[C@H](CC(C)C)NC(=O)[C@H](CC(N)=O)NC(=O)[C@@H]2CCCN2C(=O)[C@H](C(C)C)NC(=O)[C@H](C)NC(=O)[C@@H](NC(=O)CCCC[C@@H]2SC[C@@H]3NC(=O)N[C@@H]32)CSc2c(F)c(F)c(c(F)c2F)-c2c(F)c(F)c(c(F)c2F)SC[C@@H](C(=O)N[C@H](C(=O)N[C@@H](CCCCN)C(N)=O)[C@@H](C)O)NC(=O)[C@H](C)NC(=O)[C@H](C(C)C)NC(=O)[C@H](CCCCN)NC(=O)[C@H](CCC(N)=O)NC(=O)[C@H](C)NC(=O)[C@H](CC(C)C)NC(=O)[C@H](C(C)C)NC(=O)[C@H](CCC(N)=O)NC1=O [C1C19 DFBP]
binding to parental K562 cells (in words) (K562 cells): significantly bound to parental K562 cells at high concentrations

cleaved bond (normal mouse serum; up to 6 h): C18-arginine19, 2 h
Molecule: Biotin-CAVPNLRGDLQVLAQKVCRTK-NH2 (cysteine pairing not given here) [C1C18 DFBP]

Molecule: CC(C)C[C@@H]1NC(=O)[C@H](CC(=O)O)NC(=O)CNC(=O)[C@H](CCCNC(=N)N)NC(=O)[C@H](CC(C)C)NC(=O)[C@H](CC(N)=O)NC(=O)[C@@H]2CCCN2C(=O)[C@H](C(C)C)NC(=O)[C@@H](NC(=O)[C@H](CC(N)=O)NC(=O)CCCC[C@@H]2SC[C@@H]3NC(=O)N[C@@H]32)CSc2c(F)c(F)c(c(F)c2F)-c2c(F)c(F)c(c(F)c2F)SC[C@@H](C(=O)N[C@H](C(=O)N[C@@H](CCCCN)C(N)=O)[C@@H](C)O)NC(=O)[C@H](C)NC(=O)[C@H](C(C)C)NC(=O)[C@H](CCCCN)NC(=O)[C@H](CCC(N)=O)NC(=O)[C@H](C)NC(=O)[C@H](CC(C)C)NC(=O)[C@H](C(C)C)NC(=O)[C@H](CCC(N)=O)NC1=O [C2C19 DFBP]
binding to parental K562 cells (in words) (K562 cells): significantly bound to parental K562 cells at high concentrations

Molecule: CC(C)C[C@@H]1NC(=O)[C@H](CC(=O)O)NC(=O)CNC(=O)[C@H](CCCNC(=N)N)NC(=O)[C@H](CC(C)C)NC(=O)[C@H](CC(N)=O)NC(=O)[C@@H]2CCCN2C(=O)[C@H](C(C)C)NC(=O)[C@H](C)NC(=O)[C@@H](NC(=O)CCCC[C@@H]2SC[C@@H]3NC(=O)N[C@@H]32)CSc2c(F)c(F)c(c(F)c2F)-c2c(F)c(F)c(c(F)c2F)SC[C@@H](C(=O)N[C@@H](CCCNC(=N)N)C(=O)N[C@H](C(=O)N[C@@H](CCCCN)C(N)=O)[C@@H](C)O)NC(=O)[C@H](C(C)C)NC(=O)[C@H](CCCCN)NC(=O)[C@H](CCC(N)=O)NC(=O)[C@H](C)NC(=O)[C@H](CC(C)C)NC(=O)[C@H](C(C)C)NC(=O)[C@H](CCC(N)=O)NC1=O [C1C18 DFBP]
binding to K562 αvβ6:mCherry cells (in words) [1]: high affinity and specificity comparable to the original A20FMDV2 peptide

Molecule: Biotin-NCVPNLRGDLQVLAQKVCRDTKAD-NH2 (cysteine pairing not given here)
cleaved bond (normal mouse serum; up to 24 h): L6-Arg7, major, 8 h; also recorded: Arg7-G8, major, 8 h; also recorded: Asn1-C2, 24 h

cleaved bond (normal mouse serum; up to 6 h): C18-arginine19, 2 h
Molecule: Biotin-NCVPNLRGDLQVLAQKVCRTK-NH2 (cysteine pairing not given here)

Molecule: CC(C)C[C@@H]1NC(=O)[C@H](CC(=O)O)NC(=O)CNC(=O)[C@H](CCCNC(=N)N)NC(=O)[C@H](CC(C)C)NC(=O)[C@H](CC(N)=O)NC(=O)[C@@H]2CCCN2C(=O)[C@H](C(C)C)NC(=O)[C@@H](NC(=O)[C@H](CC(N)=O)NC(=O)CCCC[C@@H]2SC[C@@H]3NC(=O)N[C@@H]32)CSc2c(F)c(F)c(c(F)c2F)-c2c(F)c(F)c(c(F)c2F)SC[C@@H](C(=O)N[C@H](CCCNC(=N)N)C(=O)N[C@H](C(=O)N[C@@H](CCCCN)C(=O)N[C@H](C)C(N)=O)[C@@H](C)O)NC(=O)[C@H](C(C)C)NC(=O)[C@H](CCCCN)NC(=O)[C@H](CCC(N)=O)NC(=O)[C@H](C)NC(=O)[C@H](CC(C)C)NC(=O)[C@H](C(C)C)NC(=O)[C@H](CCC(N)=O)NC1=O [C2C18 RDTKAD DFBP]
reduced binding fluorescence (maximal signal versus A20FMDV2, Fig. 3B) [1]: ~60%
t1/2 of intact peptide in serum [2]: 4.518 h

Molecule: CC(C)C[C@@H]1NC(=O)[C@H](CC(=O)O)NC(=O)CNC(=O)[C@H](CCCNC(=N)N)NC(=O)[C@H](CC(C)C)NC(=O)[C@H](CC(N)=O)NC(=O)[C@@H]2CCCN2C(=O)[C@H](C(C)C)NC(=O)[C@H](C)NC(=O)[C@@H](NC(=O)CCCC[C@@H]2SC[C@@H]3NC(=O)N[C@@H]32)CSc2c(F)c(F)c(c(F)c2F)-c2c(F)c(F)c(c(F)c2F)SC[C@@H](C(=O)N[C@@H](CCCCN)C(N)=O)NC(=O)[C@H](CCCNC(=N)N)NC(=O)[C@H](C)NC(=O)[C@H](C(C)C)NC(=O)[C@H](CCCCN)NC(=O)[C@H](CCC(N)=O)NC(=O)[C@H](C)NC(=O)[C@H](CC(C)C)NC(=O)[C@H](C(C)C)NC(=O)[C@H](CCC(N)=O)NC1=O [C1C20 DFBP]
binding to K562 αvβ6:mCherry cells (in words) [1]: high affinity and specificity comparable to the original A20FMDV2 peptide

fragment found (normal mouse serum; up to 24 h): 719: unidentified, 4 h
Molecule: Biotin-CADVPNLRGDLQVLADQKVCRDTKDAD-NH2 (cysteine pairing not given here)
cleaved bond (normal mouse serum; up to 24 h): KD21-AD22, 24 h; also recorded: L6-Arg7, major

Molecule: CC(C)C[C@@H]1NC(=O)[C@H](CC(=O)O)NC(=O)CNC(=O)[C@H](CCCNC(=N)N)NC(=O)[C@H](CC(C)C)NC(=O)[C@H](CC(N)=O)NC(=O)[C@@H]2CCCN2C(=O)[C@H](C(C)C)NC(=O)[C@@H](NC(=O)[C@H](CC(N)=O)NC(=O)CCCC[C@@H]2SC[C@@H]3NC(=O)N[C@@H]32)CSc2c(F)c(F)c(c(F)c2F)-c2c(F)c(F)c(c(F)c2F)SC[C@@H](C(=O)N[C@@H](CCCNC(N)=O)C(=O)N[C@H](C(=O)N[C@@H](CCCCN)C(=O)N[C@H](C)C(N)=O)[C@@H](C)O)NC(=O)[C@H](C(C)C)NC(=O)[C@H](CCCCN)NC(=O)[C@H](CCC(N)=O)NC(=O)[C@H](C)NC(=O)[C@H](CC(C)C)NC(=O)[C@H](C(C)C)NC(=O)[C@H](CCC(N)=O)NC1=O [C2C18 CitTKAD DFBP]
half-life (in vitro): 4.96 h
